Key:
[1] = test system: HT-29 cell line (human colon cancer cells); test: Test of cell proliferation of the HT-29 cells (WST1), products individually or in combination; type: cell-based; details: 120 hours
Protocol: A) Test of Cell Proliferation of the HT-29 Cells
The protocol for the test used to obtain the results shown is described below:
The HT-29 cell line (human colon cancer cells) were acquired from the American Tissue Culture Collection (Rockville, Md., USA).
The HT-29 cells (2000 cells/well) are cultured in 96-well plates. On day 0, these cells are seeded in 90 μl of Dulbecco's modified Eagle medium (Gibco-Brl, Cergy-Pontoise, France) completed with 10% foetal calf serum inactived by heating (Gibco-Brl, Cergy-Pontoise, France), 50000 units/l of penicillin and 50 mg/l streptomycin (Gibco-Brl, Cergy-Pontoise, France), and 2 mM of glutamine (Gibco-Brl, Cergy-Pontoise, France).
The cells were treated simultaneously with concentrations of two products individually or in combination on Day 1 and for 120 hours.
At the end of the of this period (D6), quantification of cell proliferation is evaluated by a colorimetric test based on the cleavage of the tetrazolium salt WST1 by mitochondrial dehydrogenases in living cells leading to the formation of formazan (Boehringer Mannheim, Meylan, France). These tests are carried out at least in duplicate with 4 determinations for each individual product and for each combination tested. This allows determination of the number of living cells at the end of each treatment.

[2] = Stability in the form of a powder; type: physicochemical; details: compound and its salts
[3] = test system: Mia-PaCa2 (human pancreas cancer cells); test: Antiproliferative activity on Mia-Paca2 cells (WST1); type: cell-based; details: MIA PaCa-2, 96 hours treatment, read-out: IC50 on the cell proliferation of Mia-Paca2 lines
Protocol: (§1) ii) Characterization of the Antiproliferative Activity:
(§2) By way of example, the effect of a treatment on two human cell lines Mia-Paca2 and DU145 with the compounds of the examples described previously will be studied. The cell lines DU145 (human prostate cancer cells) and Mia-PaCa2 (human pancreas cancer cells) were acquired from the American Tissue Culture Collection (Rockville, Md., USA). The cells placed in 80 μl of Dulbecco's Modified Eagle's medium (Gibco-Brl, Cergy-Pontoise, France) completed with 10% foetal calf serum inactivated by heating (Gibco-Brl, Cergy-Pontoise, France), 50,000 units/l of penicillin and 50 mg/l of streptomycin (Gibco-Brl, Cergy-Pontoise, France), and 2 mM of glutamine (Gibco-Brl, Cergy-Pontoise, France) were seeded on a 96-well plate on day 0. The cells were treated on day 1 for 96 hours with increasing concentrations of each of the compounds to be tested up to 10 μM. At the end of this period, quantification of cell proliferation is evaluated by a colorimetric test based on the cleavage of the tetrazolium salt WST1 by the mitochondrial dehydrogenases in viable cells leading to the formation of formazan (Boehringer Mannheim, Meylan, France). These tests are carried out in duplicate with 8 determinations per concentration tested. For each compound to be tested, the values included in the linear part of the sigmoid were retained for a linear regression analysis and used to estimate the inhibitory concentration IC50. The products are solubilized in dimethylsulphoxide (DMSO) at 10^−2 M and finally used in culture with 0.1% DMSO.

[4] = test system: DU145 (human prostate cancer cells); test: Antiproliferative activity on DU145 cells (WST1); type: cell-based; details: DU-145, 96 hours treatment, read-out: IC50 on the cell proliferation of DU-145 lines
Protocol: as §1
as §2, with “For each compound to be tested, the values included in the linear part of the sigmoid were retained for a linear regression analysis and used to estimate the inhibitory concentration IC50. The products are solubilized in dimethylsulphoxide (DMSO) at 10^−2 M and finally used in culture with 0.1% DMSO.” left out

4-(2-bromophenyl)-1-(2-(1-((4-cyano-3-methoxy)phenylmethyl)imidazo-5-yl)-1-oxoethyl)-1,2-dihydro-8-fluoroimidazo[1,2a][1,4]-benzodiazepine [Compound B7]
% of surviving cells ([1]; Combination 7: Compound B7 (10^−5 M) individually): 92%

N[C@@H](CSSC[C@H](N)C(=O)N1CCn2cc(-c3ccccc3)nc2[C@@H]1CC1CCCCC1)C(=O)N1CCn2cc(-c3ccccc3)nc2[C@@H]1CC1CCCCC1 [(1R)-1-[({(2R)-2-amino-3-[(8S)-8-(cyclohexylmethyl)-2-phenyl-5,6-dihydroimidazo[1,2-a]pyrazin-7(8H)-yl]-3-oxopropyl}dithio)methyl]-2-[(8)-8-(cyclohexylmethyl)-2-phenyl-5,6-dihydroimidazo[1,2-a]pyrazin-7(8H)-yl]-2-oxoethylamine]
stability in the form of a powder [2]: particularly stable
in vivo toxicity data (In vivo toxicity): excellent

CO[C@@]12[C@H](COC(N)=O)C3=C(C(=O)C(C)=C(N)C3=O)N1C[C@@H]1N[C@@H]12 [Compound B2, mitomycin C]
% of surviving cells ([1]; Combination 2: Compound B2 (10^−7 M) individually): 49%
% of surviving cells ([1]; Combination 25: Compound B2 (5 × 10^−8 M) individually): 82%
% of surviving cells ([1]; Combination 32: Compound B2 (5 × 10^−8 M) individually): 88%
% of surviving cells ([1]; Combination 33: Compound B2 (5 × 10^−8 M) individually): 88%

N.N.[Cl][Pt][Cl] [Compound B4, cisplatin]
% of surviving cells ([1]; Combination 4: Compound B4 (10^−5 M) individually): 33%
% of surviving cells ([1]; Combination 28: Compound B4 (10^−5 M) individually): 75%
% of surviving cells ([1]; Combination 35: Compound B4 (10^−5 M) individually): 85%

CN(Cc1cnc2nc(N)nc(N)c2n1)c1ccc(C(=O)N[C@@H](CCC(=O)O)C(=O)O)cc1 [Compound B5, methotrexate]
% of surviving cells ([1]; Combination 5: Compound B5 (5 × 10^−8 M) individually): 83%

CCc1c2c(nc3ccc(O)cc13)-c1cc3c(c(=O)n1C2)COC(=O)[C@]3(O)CC [Compound B11, SN-38]
% of surviving cells ([1]; Combination 11: Compound B11 (5 × 10^−9 M) individually): 98%
% of surviving cells ([1]; Combination 24: Compound B11 (10^−8 M) individually): 73%
% of surviving cells ([1]; Combination 30: Compound B11 (10^−8 M) individually): 67%

CC[C@@]1(O)CC(=O)OCc2c1cc1n(c2=O)Cc2c-1nc1cc(Cl)c(C)cc1c2CN1CCC(C)CC1.Cl [Compound B13, (+)-9-chloro-5-ethyl-5-hydroxy-10-methyl-12-(4-methylpiperidinomethyl)-4,5,13,15-tetrahydro-1H,3H-oxepino[3′,4′:6,7]indolizino[1,2-c]quinoline-3,15-dione hydrochloride]
% of surviving cells ([1]; Combination 13: Compound B13 (10^−9 M) individually): 91%

CCCNC1=CC(=O)c2sc(C)nc2C1=O [Example 11, 2-methyl-5-(propylamino)-1,3-benzothiazole-4,7-dione]
IC50 [3]: ≤ 10 µM
IC50 [4]: ≤ 10 µM

CCc1nc2c(o1)C(=O)C(C)=C(NCCN(C)C)C2=O [Example 55, 5-{[2-(dimethylamino)ethyl]amino}-2-ethyl-6-methyl-1,3-benzoxazole-4,7-dione]
melting point: 135 °C
IC50 [3]: ≤ 10 µM
